# Measured values taken from US12473250B2, “Molecular design of new antibiotics and antibiotic adjuvants against MCR strains” (priority 2019, dated 2025).
# Columns and labels:
# [1] = system: ENT CLOACAE multi-drug resistant strains; assay: Synergy of LC100 with colistin against multi-drug resistant strains (Table 5); type: cell-based, E. cloacae
# Protocol: (§1) The MICs of the individual drugs and LC compound in combinations were determined using the broth microdilution technique as recommended by the CLSI whereby the two anti-microbial agents were added in an equal amount. (e.g.: 50 μL of Colistin: 50 μL of LC compounds). Diluted media containing compounds and antibiotics will be serially diluted 2-fold, and LC compounds and antibiotics alone or in combination will be assayed at fixed synergy concentration. In all cases, the lowest concentration at which no visible growth occurred was be recorded to be the MIC value of individual and combined antibacterial agents. The results were obtained after 24 hours of incubation.
# [2] = system: 6083655967 [MCR 1+; E.Coli]; assay: Synergistic study between LC100 or LC101 with B2088; type: cell-based; conditions: for Combination MIC: strain 6083655967, value of each component
# Protocol: as §1
# Using the combination of LC100 and colistin, the activity of a broad range of strains was further tested (Table 7).
# [3] = system: EC strains (CRE strains, colistin sensitive); assay: MIC of polymyxin B or colistin alone (Table 4); type: cell-based, E. coli; design: unit: μg/mL
# Protocol: MIC experiments of the antimicrobial agents were determined by a modified broth microdilution method in accordance with the Clinical and Laboratory Standards Institute (CLSI) guidelines using 96 well culture plates. In brief, serial dilutions of all plates were prepared at different concentrations (μg). The inoculum suspension was prepared by adding isolated colonies from a 18-20 hours on TSA plate into phosphate buffer (0.31 mM, pH 7.2) or in water for injection (BBraun) and adjusting the suspension to a turbidity equivalent to 0.5 McFarland Standard. Each well contained a final bacterial concentration of approximately 5×10^5 colony forming units (CFU)/mL. The plate was covered and incubated at 35° C. for 24 hours. […] For the microdilution plates, turbidity in wells can be measured at OD600 using TECAN infinite M200Pro. MIC was determined as […] concentration that gives a 99 percent inhibition.
molecule,measurement,setting,value
CCN(CC)CCCCOc1ccc(/C=C/C(=O)c2ccc(OCCCCN(CC)CC)c(CC=C(C)C)c2O)cc1 [LC100],Colistin MIC in the presence of LC100,"[1]; strain ENT CLOACAE 6780, LC 100 2 μg",0.39 µg/mL
same,Colistin MIC in the presence of LC100,"[1]; strain ENT CLOACAE 6780, LC 100 5 μg",<0.0975 µg/mL
same,Colistin MIC in the presence of LC100,"[1]; strain ENT CLOACAE 21489, LC 100 2 μg",0.195 µg/mL
same,Colistin MIC in the presence of LC100,"[1]; strain ENT CLOACAE 21489, LC 100 5 μg",<0.0975 µg/mL
same,Colistin MIC in the presence of LC100,"[1]; strain ENT CLOACAE 30063, LC 100 2 μg",25 µg/mL
same,Colistin MIC in the presence of LC100,"[1]; strain ENT CLOACAE 30063, LC 100 5 μg",6.25 µg/mL
same,Colistin MIC in the presence of LC100,"[1]; strain ENT CLOACAE 44095, LC 100 2 μg",>25 µg/mL
same,Colistin MIC in the presence of LC100,"[1]; strain ENT CLOACAE 44095, LC 100 5 μg",>25 µg/mL
same,Combination MIC,[2]; combination B2088 (Ac) + LC 100,2 µg/mL
same,Combination MIC,[2]; combination B2088 + LC 100,1 µg/mL
same,level of synergistic effect with B2088,[2]; killing E. coli with the mcr-1 mutation,1 µg/mL
Colistin,MIC (antibiotic alone),[3]; strain EC 17232,0.195
same,MIC (antibiotic alone),[3]; strain EC 17528,0.78
same,MIC (antibiotic alone),[3]; strain EC 19963,1.56
